Assay results as given in patent US20220233512A1, “INHIBITING AN IMMUNE RESPONSE MEDIATED BY ONE OR MORE OF TLR2, RAGE, CCR5, CXCR4 AND CD4” (priority 2020, published 2022).

Key:
tau = test: Tau phosphorylation in human postmortem frontal cortex slices; format: cell-based; settings: 1 or 10 nM compound
Procedure: As will be seen from examination of FIG. 3 and FIG. 4, the ratio of TLR2 to FLNA increased with administration of each of LTA-SA, PGN-SA and Ab42 at a statistically significant amount relative to the control (p<0.01). Those changes in expression of TLR2 relative to FLNA were each inhibited by the presence of the 1 or 10 nM Compound C0105 at a statistically significant amount relative to the control (p<0.01) and relative to the ligand used. See, FIG. 3B.
A slight inhibition (about 25% or less) of that enhanced tau phosphorylation was provided by contacting the cells with 1 or 10 nM Compound C0105. […] See, FIGS. 4A and 4B.
The levels of phosphorylated tau (pSer202tau, pThr231tau and pThr181tau) as well as total tau precipitated (loading controls) are assessed by Western blotting using specific antibodies directed against each of the phosphor-epitopes and the anti-tau, respectively.

FLNA = molecular target: T1, FLNA (Mus musculus, UniProt Q8BTM8); settings: 20-22 mg/kg in vivo; Ab42-infused, 3xTg AD and aged wild-type mice (untreated 5.3); Wang et al. 2017; cited from earlier work
T1 construct: pI of FLNA from the brains of naïve mice; from tissue; host or cells: mouse brain (in vivo treated animals)

[1] = molecular target: FLNA interactions with CXCR4, CD4 and CCR5 (Homo sapiens, UniProt P21333); test: FLNA interactions with CXCR4, CD4 and CCR5 in lymphocytes (western blot); settings: 1 nM; lymphocytes of Ab42-treated young control subject and of AD patient
[2] = test system: mild-to-moderate AD patients; test: Clinical studies of sumifilam in Alzheimer's disease patients; format: in vivo, human
From the text: FIG. 7, in two panels as FIGS. 7A and 7B, graphically illustrates some of the results of a Phase 2b Clinical study of the effects of Compound C0105, now known as sumifilam, on 64 mild-to-moderate AD patients, mini-mental state examination (MMSE) value of ≥16≤26, age 50-85 years, with a key inclusion at screening of CFS Total tau/ab≥0.28. The patients were divided into three groups, and each group was given one of three tablet dosages twice daily for 28 days. One patient group received a placebo, another received tablets containing 50 mg of sumifilam and the third received tablets containing 100 mg of sumifilam. Lumbar puncture screening of CFS and blood were taken prior to any administration and at day 28. […] FIG. 7B repeats the results shown in FIG. 7A and includes results for the additional neuroinflammation markers YKL-40 (a glycoprotein produced by inflammatory, cancer and stem cells), interleukin-6 (IL-6), soluble triggering receptor expressed on myeloid cells 2 (sTREM2), albumin (a marker for blood-brain-barrier permeability) and IgG antibodies. Stronger significance levels occurred in the 100 mg group. Data are means±SEM. *p≤0.0001, #p≤0.001, †p<0.01 and +p<0.05 versus placebo. N=22, 18 and 19 for placebo, 50 mg and 100 mg, respectively. […]

[3] = test system: human astrocyte TLR2 receptors; test: Release of pro-inflammatory cytokines from primary human astrocytes; format: cell-based
Procedure: A primary astrocyte culture was prepared according to the provider (Lonza). The adherent astrocytes were trypsinized by 0.25% trypsin-EDTA, then collected and sub-cultured in 12-well plate (1.2 ml/well). When the cells were 80-85% confluent, cells were treated in an incubator under 5% CO2 with 100 fM, 10 pM or 1 nM Compound C0105 immediately followed by the addition of Ab42 ([…]), LPS (1 mg/ml), LTA-SA (1 mg/ml) and PGN-SA (10 mg/ml); i.e., simultaneously adding the insulting ligand and Compound C0105 to the cells. Vehicle groups were treated with 0.1% DMSO only. Incubation continued for 24 hours post addition. Culture medium was used as the blank (non-treat) and the levels of cytokines, TNF-a, IL-6 and IL-1b in 200 ml of culture medium were determined. Each well was sampled once.
Plates were washed 3 times with ice-cold 50 mM Tris HCl (pH 7.4) and incubated at 30° C. with 200 ml medium derived from the above-mentioned conditions. […] Plates were washed twice with 200 ml ice-cold Tris HCl, pH 7.4 and the residual FITC signals were determined by multimode plate reader, DTX880 (Beckman).
A primary astrocyte culture was prepared according to the provider (Lonza). […] Culture medium was used as the blank (non-treat) and the levels of cytokines, TNF-a, IL-6 and IL-1b in 200 ml of culture medium were determined. […]

Sequence of FLNA interactions with CXCR4, CD4 and CCR5 (P21333 2-2647 limits assumed): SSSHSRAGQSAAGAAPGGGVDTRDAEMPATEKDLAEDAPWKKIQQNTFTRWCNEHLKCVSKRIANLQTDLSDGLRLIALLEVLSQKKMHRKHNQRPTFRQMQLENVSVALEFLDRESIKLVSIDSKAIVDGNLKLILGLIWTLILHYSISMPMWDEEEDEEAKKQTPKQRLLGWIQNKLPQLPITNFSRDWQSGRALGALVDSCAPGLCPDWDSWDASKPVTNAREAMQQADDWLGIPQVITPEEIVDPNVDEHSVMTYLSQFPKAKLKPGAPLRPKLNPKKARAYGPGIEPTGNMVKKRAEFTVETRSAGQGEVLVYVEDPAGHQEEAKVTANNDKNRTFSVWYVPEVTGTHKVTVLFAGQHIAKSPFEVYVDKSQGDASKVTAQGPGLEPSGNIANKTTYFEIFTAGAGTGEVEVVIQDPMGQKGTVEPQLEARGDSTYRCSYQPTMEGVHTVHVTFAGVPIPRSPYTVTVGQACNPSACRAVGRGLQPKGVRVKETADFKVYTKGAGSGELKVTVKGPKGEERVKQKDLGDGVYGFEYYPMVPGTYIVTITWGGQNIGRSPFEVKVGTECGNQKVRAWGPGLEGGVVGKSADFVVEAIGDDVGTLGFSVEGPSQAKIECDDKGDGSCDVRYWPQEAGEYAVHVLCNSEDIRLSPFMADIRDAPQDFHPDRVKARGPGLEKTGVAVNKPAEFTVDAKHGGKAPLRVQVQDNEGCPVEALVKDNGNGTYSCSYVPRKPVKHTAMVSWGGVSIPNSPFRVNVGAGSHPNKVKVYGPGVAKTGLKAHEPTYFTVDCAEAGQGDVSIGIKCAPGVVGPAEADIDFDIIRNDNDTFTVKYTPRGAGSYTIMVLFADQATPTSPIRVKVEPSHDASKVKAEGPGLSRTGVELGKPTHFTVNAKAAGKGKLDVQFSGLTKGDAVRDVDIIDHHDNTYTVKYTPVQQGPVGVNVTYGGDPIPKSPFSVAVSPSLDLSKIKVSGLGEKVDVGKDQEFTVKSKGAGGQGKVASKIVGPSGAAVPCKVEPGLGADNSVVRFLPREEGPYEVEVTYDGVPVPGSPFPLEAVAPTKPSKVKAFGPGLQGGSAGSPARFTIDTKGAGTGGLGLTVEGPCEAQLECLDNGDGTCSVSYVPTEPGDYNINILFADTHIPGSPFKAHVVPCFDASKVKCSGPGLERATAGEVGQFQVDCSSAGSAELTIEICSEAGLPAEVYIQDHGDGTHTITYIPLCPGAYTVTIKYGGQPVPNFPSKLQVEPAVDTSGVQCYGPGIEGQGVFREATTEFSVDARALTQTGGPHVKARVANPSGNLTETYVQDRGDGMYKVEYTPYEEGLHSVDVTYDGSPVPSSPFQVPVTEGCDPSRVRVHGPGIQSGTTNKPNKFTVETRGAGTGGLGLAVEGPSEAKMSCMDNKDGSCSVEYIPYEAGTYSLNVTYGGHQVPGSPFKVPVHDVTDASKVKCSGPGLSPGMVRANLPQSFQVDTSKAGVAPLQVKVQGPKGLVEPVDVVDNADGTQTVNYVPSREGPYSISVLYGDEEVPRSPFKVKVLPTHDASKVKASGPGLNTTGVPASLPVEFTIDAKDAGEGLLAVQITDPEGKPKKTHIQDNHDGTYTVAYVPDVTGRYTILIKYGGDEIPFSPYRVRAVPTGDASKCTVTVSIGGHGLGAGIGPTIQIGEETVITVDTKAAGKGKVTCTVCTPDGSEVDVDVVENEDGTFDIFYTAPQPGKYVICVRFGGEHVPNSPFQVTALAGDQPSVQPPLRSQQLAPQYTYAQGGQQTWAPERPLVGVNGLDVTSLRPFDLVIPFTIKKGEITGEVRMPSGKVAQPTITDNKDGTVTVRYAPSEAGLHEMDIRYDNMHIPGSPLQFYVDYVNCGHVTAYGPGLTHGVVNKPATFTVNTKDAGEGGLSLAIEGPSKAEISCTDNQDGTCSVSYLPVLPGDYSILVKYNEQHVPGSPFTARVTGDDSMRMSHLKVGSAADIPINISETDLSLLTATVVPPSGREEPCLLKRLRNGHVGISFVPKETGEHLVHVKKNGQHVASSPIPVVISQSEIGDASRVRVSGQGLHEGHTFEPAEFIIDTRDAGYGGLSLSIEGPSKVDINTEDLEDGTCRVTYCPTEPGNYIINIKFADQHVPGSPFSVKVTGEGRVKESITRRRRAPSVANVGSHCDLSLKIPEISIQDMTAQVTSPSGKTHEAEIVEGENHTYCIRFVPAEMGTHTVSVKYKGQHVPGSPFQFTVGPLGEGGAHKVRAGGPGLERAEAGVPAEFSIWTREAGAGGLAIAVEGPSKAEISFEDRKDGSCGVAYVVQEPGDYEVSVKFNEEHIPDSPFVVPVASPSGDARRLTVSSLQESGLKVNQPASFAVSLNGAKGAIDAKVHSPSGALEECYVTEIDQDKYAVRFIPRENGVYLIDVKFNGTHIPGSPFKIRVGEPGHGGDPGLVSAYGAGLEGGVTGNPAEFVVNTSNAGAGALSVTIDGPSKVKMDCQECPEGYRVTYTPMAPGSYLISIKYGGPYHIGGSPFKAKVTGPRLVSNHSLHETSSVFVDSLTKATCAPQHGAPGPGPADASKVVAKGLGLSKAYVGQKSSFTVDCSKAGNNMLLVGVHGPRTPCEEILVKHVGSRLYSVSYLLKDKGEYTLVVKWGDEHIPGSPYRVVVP

CN1CCC2(CC1)NCC(=O)N2Cc1ccccc1 [Compound C0105M]
Inhibition of LTA-SA- or PGN-SA-enhanced tau phosphorylation (tau): ≤ 25% | Ab42-induced tau phosphorylation (in words) (tau; 0.1 micromolar Ab42): statistically significant reduction | pI of FLNA from brain after treatment (FLNA): 5.9 | FLNA linkages with CXCR4, CD4 and CCR5 (in words) [1]: reduced these linkages | Immunoinflammatory cytokines in treated patients ([2]; 50 or 100 mg twice daily, 28-day and 6-month studies): reduction in the immunoinflammatory cytokines | Amount of HMGB1 in CSF ([2]; Phase 2b, 50 mg or 100 mg tablets twice daily for 28 days, p<0.001 relative to placebo): decreased significantly | Ab42-induced inflammatory cytokine production (in words) ([3]; Ab42 exposure): nearly abolishes this cytokine production | Release of the three pro-inflammatory cytokines (in words) ([3]; LTA-SA or PGN-SA insult, human astrocytes): substantially inhibited the release
